Source: US4563472A, “Iodoallyl and iodopropargyl substituted tetrazoles and anti-microbial compositions thereof” (Meiji Seika Kaisha, Ltd., priority 1982, dated 1986)
In brackets after ≈: the same amount, converted by molar mass. Like-named read-outs stand apart in the source and are kept apart here.

Experiments:
[1] = system: Aspergillus fumigatus Saito; test: Antifungal Activity (in Medicinal Field), MIC; assay type: cell-based; details: read-out: Minimal Inhibitory Conc. (MIC)
[2] = system: Gibberella fujikuroi; test: Antibacterial and Antifungal Activities (in Agricultural Field), MIC; assay type: cell-based; details: Fusarium fujikuroi, read-out: Minimal Inhibitory Conc. (MIC)
[3] = system: Aspergillus terreus PQMD 82 j; test: Antifungal Activity (in Industrial Field), MIC; assay type: cell-based; details: PQMD82J, read-out: Minimal Inhibitory Conc. (MIC)
[4] = system: Candida alubicans GA-24; test: Antifungal Activity (in Medicinal Field), MIC; assay type: cell-based
[5] = system: Aspergillus fumigatus IAM 2621; test: Antifungal Activity (in Industrial Field), MIC; assay type: cell-based; details: IAM2621, read-out: Minimal Inhibitory Conc. (MIC)
[6] = system: Aspergillus flavus ATCC 6275; test: Antifungal Activity (in Industrial Field), MIC; assay type: cell-based; details: ATCC6275, read-out: Minimal Inhibitory Conc. (MIC)
[7] = system: Cochliobolus miyabeanus; test: Antibacterial and Antifungal Activities (in Agricultural Field), MIC; assay type: cell-based; details: Bipolaris oryzae, read-out: Minimal Inhibitory Conc. (MIC)
[8] = system: Alternaria kikuchiana; test: as above; assay type: cell-based; details: read-out: Minimal Inhibitory Conc. (MIC)
[9] = system: Mucor spinescens IAM Mu3; test: Antifungal Activity (in Industrial Field), MIC; assay type: cell-based; details: IAMMU3, read-out: Minimal Inhibitory Conc. (MIC)
[10] = system: Cryptococcus neoformans Cr-1; test: Antifungal Activity (in Medicinal Field), MIC; assay type: cell-based; details: CR1, read-out: Minimal Inhibitory Conc. (MIC)
[11] = system: Chaetomium globosum ATCC 6205; test: Antifungal Activity (in Industrial Field), MIC; assay type: cell-based; details: ATCC6205, read-out: Minimal Inhibitory Conc. (MIC)
[12] = system: Fusarium oxysporum f. lycopersici; test: Antibacterial and Antifungal Activities (in Agricultural Field), MIC; assay type: cell-based; details: read-out: Minimal Inhibitory Conc. (MIC)
[13] = system: Pellicularia filamentosa; test: as above; assay type: cell-based; details: read-out: Minimal Inhibitory Conc. (MIC)
[14] = system: Colletotrichum lagenarium; test: as above; assay type: cell-based; details: Colletotrichum orbiculare, read-out: Minimal Inhibitory Conc. (MIC)
[15] = system: Trichoderma T-1 ATCC 9645; test: Antifungal Activity (in Industrial Field), MIC; assay type: cell-based; details: ATCC9645, read-out: Minimal Inhibitory Conc. (MIC)
[16] = system: Cladosporium herbarum IAM F-517; test: Antifungal Activity (in Industrial Field), MIC; assay type: cell-based; details: IAMF517, read-out: Minimal Inhibitory Conc. (MIC)
[17] = system: Glomerella cingulata; test: Antibacterial and Antifungal Activities (in Agricultural Field), MIC; assay type: cell-based; details: Colletotrichum gloeosporioides, read-out: Minimal Inhibitory Conc. (MIC)
[18] = system: Trichophyton metagrophytes 530324; test: Antifungal Activity (in Medicinal Field), MIC; assay type: cell-based
[19] = system: Pullularia pullulans IAM F-24; test: Antifungal Activity (in Industrial Field), MIC; assay type: cell-based; details: IAMF24; Pullularia pullulans IAM F-24; read-out: Minimal Inhibitory Conc. (MIC)
[20] = system: Botrytis cinerea; test: Antibacterial and Antifungal Activities (in Agricultural Field), MIC; assay type: cell-based; details: read-out: Minimal Inhibitory Conc. (MIC)
[21] = system: Trichophyton interdigitale; test: Antifungal Activity (in Medicinal Field), MIC; assay type: cell-based; details: read-out: Minimal Inhibitory Conc. (MIC)
[22] = system: Xanthomonas campestris pv. oryzae; test: microbe, parasite or virus in culture; assay type: cell-based; details: read-out: Minimal Inhibitory Conc. (MIC)
[23] = system: Penicillium luteum ATCC 9644; test: Antifungal Activity (in Industrial Field), MIC; assay type: cell-based; details: Ascospirella lutea, ATCC9644, read-out: Minimal Inhibitory Conc. (MIC)
[24] = system: Trichophyton mentagrophytes; test: Therapeutic experiment on trichophytosis in guinea pigs, visual observation; assay type: in vivo, guinea pigs (White Hartly-strain); details: 1% preparation, 0.25 ml once per day, 8 consecutive days
[25] = system: Trichophyton mentagrophytes; test: Reducing culture positive rate of skin slices from infected guinea pigs; assay type: in vivo, guinea pigs (White Hartly-strain); design: concentration or dose not given beside the values; details: after 8 days application, non-treated 100
[26] = system: Rhizopus nigricans S.N. 32; test: Antifungal Activity (in Industrial Field), MIC; assay type: cell-based; details: Rhizopus stolonifer, read-out: Minimal Inhibitory Conc. (MIC)
[27] = GA24, Candida alubicans GA-24, read-out: Minimal Inhibitory Conc. (MIC)
[28] = Trichophyton metagrophytes 530324, read-out: Minimal Inhibitory Conc. (MIC)
[29] = Candida, GA24, read-out: Minimal Inhibitory Conc. (MIC)
[30] = Trichophyton, 530324, read-out: Minimal Inhibitory Conc. (MIC)

SMILES	MIC [1]	MIC [3]	MIC [4, 27]	MIC [5]	MIC [6]	MIC [9]	MIC [10]	MIC [11]	MIC [15]	MIC [16]	MIC [18, 28]	MIC [19]	MIC [21]	MIC [23]	MIC [4, 29]	MIC [26]	MIC [18, 30]	further results
O=[N+]([O-])c1cn(CC#CI)c(Cl)c1Cl [1-(1'-iodopropyn-3'-yl)-2,3-dichloro-4-nitropyrrole]	0.39 µg/mL (≈ 1.13 µM)	0.39 µg/mL (≈ 1.13 µM)	0.78 µg/mL (≈ 2.26 µM)	< 0.09 µg/mL	0.39 µg/mL (≈ 1.13 µM)	0.39 µg/mL (≈ 1.13 µM)	1.56 µg/mL (≈ 4.52 µM)	1.56 µg/mL (≈ 4.52 µM)	3.12 µg/mL (≈ 9.05 µM)	6.25 µg/mL (≈ 18.1 µM)	0.09 µg/mL (≈ 0.261 µM)	6.25 µg/mL (≈ 18.1 µM)	0.39 µg/mL (≈ 1.13 µM)	0.78 µg/mL (≈ 2.26 µM)				MIC [2]: 1.56 µg/mL (≈ 4.52 µM); MIC [7]: 12.5 µg/mL (≈ 36.2 µM); MIC [8]: 0.78 µg/mL (≈ 2.26 µM); MIC [12]: 3.12 µg/mL (≈ 9.05 µM); MIC [13]: > 50 µg/mL; MIC [14]: 1.56 µg/mL (≈ 4.52 µM); MIC [17]: 0.19 µg/mL (≈ 0.551 µM); MIC [20]: 0.39 µg/mL (≈ 1.13 µM); MIC [22]: 0.39 µg/mL (≈ 1.13 µM)
O=[N+]([O-])c1cc(Cl)n(CC#CI)c1 [1-(1'-iodopropyn-3'-yl)-2-chloro-4-nitropyrrole]		0.19 µg/mL (≈ 0.612 µM)		0.19 µg/mL (≈ 0.612 µM)	0.39 µg/mL (≈ 1.26 µM)	0.78 µg/mL (≈ 2.51 µM)		12.5 µg/mL (≈ 40.3 µM)	3.12 µg/mL (≈ 10 µM)	1.56 µg/mL (≈ 5.02 µM)		1.56 µg/mL (≈ 5.02 µM)		0.39 µg/mL (≈ 1.26 µM)				
O=[N+]([O-])c1c(Cl)cccc1-c1c[nH]cc1Cl [pyrrolnitrin, 3-chloro-4-(2'-nitro-3'-chlorophenyl)pyrrole, reference compound]																		Therapeutic Effect: Thickening [24]: effective; Reducing Culture Positive Rate ([25]; 3 days culture): 62%; Reducing Culture Positive Rate ([25]; 5 days culture): 87%; Reducing Culture Positive Rate ([25]; 7 days culture): 87%
Clc1ccccc1C(c1ccccc1)(c1ccccc1)n1ccnc1 [chlotrimazol, 1-(O-chloro-α,α-diphenylbenzyl)imidazole, reference compound]																		Therapeutic Effect: Desquamation [24]: effective; Therapeutic Effect: Thickening [24]: effective; Reducing Culture Positive Rate ([25]; 3 days culture): 75%; Reducing Culture Positive Rate ([25]; 5 days culture): 96%; Reducing Culture Positive Rate ([25]; 7 days culture): 96%
IC#CCn1cncn1 [1-(1'-iodopropyn-3'-yl)-1,2,4-triazole]	0.78 µg/mL (≈ 3.35 µM)	0.39 µg/mL (≈ 1.67 µM)		50 µg/mL (≈ 215 µM)	6.25 µg/mL (≈ 26.8 µM)	6.25 µg/mL (≈ 26.8 µM)	0.78 µg/mL (≈ 3.35 µM)	25 µg/mL (≈ 107 µM)	3.13 µg/mL (≈ 13.4 µM)	3.13 µg/mL (≈ 13.4 µM)		3.13 µg/mL (≈ 13.4 µM)	0.78 µg/mL (≈ 3.35 µM)	3.13 µg/mL (≈ 13.4 µM)	3.12 µg/mL (≈ 13.4 µM)	3.13 µg/mL (≈ 13.4 µM)	1.56 µg/mL (≈ 6.69 µM)	
CC(=O)Nc1nnn(CC(I)=C(I)I)n1 [2-(2',3',3'-triiodoallyl)-5-acetylaminotetrazole]	12.5 µg/mL (≈ 22.9 µM)		100 µg/mL (≈ 184 µM)				100 µg/mL (≈ 184 µM)				3.12 µg/mL (≈ 5.73 µM)		3.12 µg/mL (≈ 5.73 µM)					
IC#CCn1cccn1 [1-(1'-iodopropyn-3'-yl)pyrazole]	0.78 µg/mL (≈ 3.36 µM)	0.78 µg/mL (≈ 3.36 µM)		1.56 µg/mL (≈ 6.72 µM)	1.56 µg/mL (≈ 6.72 µM)	1.56 µg/mL (≈ 6.72 µM)	0.78 µg/mL (≈ 3.36 µM)	12.5 µg/mL (≈ 53.9 µM)	3.13 µg/mL (≈ 13.5 µM)	3.13 µg/mL (≈ 13.5 µM)		3.13 µg/mL (≈ 13.5 µM)	0.39 µg/mL (≈ 1.68 µM)	0.78 µg/mL (≈ 3.36 µM)	3.12 µg/mL (≈ 13.4 µM)	1.56 µg/mL (≈ 6.72 µM)	0.39 µg/mL (≈ 1.68 µM)	
Cc1nnnn1CC(I)=C(I)I [1-(2',3',3'-triiodoallyl)-5-methyltetrazole]	0.78 µg/mL (≈ 1.55 µM)		3.12 µg/mL (≈ 6.22 µM)				6.25 µg/mL (≈ 12.5 µM)				0.78 µg/mL (≈ 1.55 µM)		0.78 µg/mL (≈ 1.55 µM)					
O=[N+]([O-])c1ccn(CC#CI)c1 [1-(1'-iodopropyn-3'-yl)-3-nitropyrrole]	0.09 µg/mL (≈ 0.326 µM)		0.78 µg/mL (≈ 2.83 µM)				0.09 µg/mL (≈ 0.326 µM)				0.19 µg/mL (≈ 0.688 µM)		0.78 µg/mL (≈ 2.83 µM)					MIC [2]: 3.12 µg/mL (≈ 11.3 µM); MIC [7]: 6.25 µg/mL (≈ 22.6 µM); MIC [8]: 1.56 µg/mL (≈ 5.65 µM); MIC [12]: 3.12 µg/mL (≈ 11.3 µM); MIC [13]: 50 µg/mL (≈ 181 µM); MIC [14]: 3.12 µg/mL (≈ 11.3 µM); MIC [17]: 0.78 µg/mL (≈ 2.83 µM); MIC [20]: 0.78 µg/mL (≈ 2.83 µM); MIC [22]: 0.39 µg/mL (≈ 1.41 µM)
IC(I)=C(I)Cn1nnc(-c2ccccc2)n1 [2-(2',3',3'-triiodoallyl)-5-phenyltetrazole]	6.25 µg/mL (≈ 11.1 µM)		12.5 µg/mL (≈ 22.2 µM)				12.5 µg/mL (≈ 22.2 µM)				1.56 µg/mL (≈ 2.77 µM)		3.12 µg/mL (≈ 5.53 µM)					
IC#CCn1cnnn1 [1-(1'-iodopropyn-3'-yl)tetrazole]	0.39 µg/mL (≈ 1.67 µM)	0.2 µg/mL (≈ 0.855 µM)		12.5 µg/mL (≈ 53.4 µM)	1.56 µg/mL (≈ 6.67 µM)	3.13 µg/mL (≈ 13.4 µM)	0.39 µg/mL (≈ 1.67 µM)	3.13 µg/mL (≈ 13.4 µM)	0.78 µg/mL (≈ 3.33 µM)	1.56 µg/mL (≈ 6.67 µM)		1.56 µg/mL (≈ 6.67 µM)	0.78 µg/mL (≈ 3.33 µM)	1.56 µg/mL (≈ 6.67 µM)	1.56 µg/mL (≈ 6.67 µM)	3.13 µg/mL (≈ 13.4 µM)	0.78 µg/mL (≈ 3.33 µM)	
IC#CCn1ncnn1 [2-(1'-iodopropyn-3'-yl)tetrazole]	1.56 µg/mL (≈ 6.67 µM)	0.78 µg/mL (≈ 3.33 µM)		25 µg/mL (≈ 107 µM)	6.25 µg/mL (≈ 26.7 µM)	3.13 µg/mL (≈ 13.4 µM)	0.78 µg/mL (≈ 3.33 µM)	25 µg/mL (≈ 107 µM)	3.13 µg/mL (≈ 13.4 µM)	3.13 µg/mL (≈ 13.4 µM)		6.25 µg/mL (≈ 26.7 µM)	1.56 µg/mL (≈ 6.67 µM)	3.13 µg/mL (≈ 13.4 µM)	3.12 µg/mL (≈ 13.3 µM)	6.25 µg/mL (≈ 26.7 µM)	1.56 µg/mL (≈ 6.67 µM)	
